Experimental data: patent publication US11096939B2, “KRAS G12C inhibitors and methods of using the same” (Amgen Inc., priority 2018, dated 2021)
Read-outs that look alike come from different tables or passages of the source.

Columns and labels:
[1] = molecular target: GDP-bound KRAS protein (aa 1-169), containing both G12C and C118A amino acid substitutions (Homo sapiens, UniProt P01116, C118A/G12C); assay: Coupled nucleotide exchange assay (SOS-mediated, AlphaScreen); format: biochemical; conditions: compound pre-incubation either 5 min or 2 hours (not stated per value); SOS and GTP added, cRAF AlphaScreen readout
Description: Coupled Nucleotide Exchange Assay:
Following compound pre-incubation, purified SOS protein (aa 564-1049) and GTP (Roche 10106399001) were added to the assay wells and incubated for an additional 30 min (for 5 min compound pre-incubation) or 1 hour (for 2 hour compound pre-incubation). To determine the extent of inhibition of SOS-mediated nucleotide exchange, purified GST-tagged cRAF (aa 1-149), nickel chelate AlphaLISA acceptor beads (PerkinElmer AL108R), and AlphaScreen glutathione donor beads (PerkinElmer 6765302) were added to the assay wells and incubated for 10 minutes. The assay plates were then read on a PerkinElmer EnVision Multilabel Reader, using AlphaScreen® technology, and data were analyzed using a 4-parameter logistic model to calculate IC50 values.

[2] = tested on: Phosphorylation of ERK1/2 in MIA PaCa-2 cells; assay: Phospho-ERK1/2 MSD assay; format: cell-based; conditions: compound 2 or 4 hours, 10 ng/mL EGF for 10 min, read-out: p-ERK IC50 (MIA-PaCa-2)
Description: Phospho-ERK1/2 MSD Assay:
MIA PaCa-2 (ATCC® CRL-1420™)-cells were cultured in RPMI 1640 Medium (ThermoFisher Scientific 11875093) containing 10% fetal bovine serum (ThermoFisher Scientific 16000044) and 1× penicillin-streptomycin-glutamine (ThermoFisher Scientific 10378016). Sixteen hours prior to compound treatment, MIA PaCa-2 cells were seeded in 96-well cell culture plates at a density of 25,000 cells/well and incubated at 37° C., 5% CO2. A compound dose-response titration was diluted in growth media, added to appropriate wells of a cell culture plate, and then incubated at 37° C., 5% CO2 for 2 or 4 hours. Following compound treatment, cells were stimulated with 10 ng/mL EGF (Roche 11376454001) for 10 min, washed with ice-cold Dulbecco's phosphate-buffered saline, no Ca^2+ or Mg^2+ (ThermoFisher Scientific 14190144), and then lysed in RIPA buffer (50 mM Tris-HC pH 7.5, 1% Igepal, 0.5% sodium deoxycholate, 150 mM NaCl, and 0.5% sodium dodecyl sulfate) containing protease inhibitors (Roche 4693132001) and phosphatase inhibitors (Roche 4906837001). Phosphorylation of ERK1/2 in compound-treated lysates was assayed using Phospho-ERK1/2 Whole Cell Lysate kits (Meso Scale Discovery KI51DWD) according to the manufacturer's protocol. Assay plates were read on a Meso Scale Discovery Sector Imager 6000, and data were analyzed using a 4-parameter logistic model to calculate IC50 values.

[3] = Homo sapiens, MIA PaCa-2, MIA PaCa-2 cells

GDP-bound KRAS protein (aa 1-169), containing both G12C and C118A amino acid substitutions, sequence (P01116 1-169 isoform P01116-2 G12C/C118A): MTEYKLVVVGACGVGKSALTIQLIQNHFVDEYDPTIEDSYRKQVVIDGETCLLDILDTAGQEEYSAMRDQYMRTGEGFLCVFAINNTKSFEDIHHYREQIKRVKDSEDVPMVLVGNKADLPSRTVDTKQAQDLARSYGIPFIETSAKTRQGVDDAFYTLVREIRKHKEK

SMILES | Coupled Exchange IC50 [1] | IC50 ([2]; MIA PaCa-2 cells) | IC50 [2, 3]
C=CC(=O)N1C[C@H](C)N(C2=NC(=O)C(C)(C3CCCC3)c3nc(-c4ccccc4F)c(Cl)cc32)C[C@H]1C (single isomer, unassigned) [Example 1-1-2] | 1.43 µM | – | –
C=CC(=O)N1C[C@H](C)N(C2=NC(=O)C(C)(CC)c3nc(-c4ccccc4F)c(Cl)cc32)C[C@H]1C (stereo partly drawn) [Example 1-4, 5-((2S,5R)-4-Acryloyl-2,5-dimethylpiperazin-1-yl)-3-chloro-8-ethyl-2-(2-fluorophenyl)-8-methyl-1,6-naphthyridin-7(8H)-one] | 19.3 µM | – | –
C=CC(=O)N1C[C@H](C)N(C2=NC(=O)C3(CCc4ccccc43)c3nc(-c4ccccc4F)c(Cl)cc32)C[C@H]1C (single isomer, unassigned) [Example 1-7-1] | 5.28 µM | 1.72 µM | –
C=CC(=O)N1C[C@H](C)N(C2=NC(=O)C(C)(C3CC3)c3nc(-c4ccccc4F)c(Cl)cc32)C[C@H]1C (stereo partly drawn) [Example 1-2, 5-((2S,5R)-4-Acryloyl-2,5-dimethylpiperazin-1-yl)-3-chloro-8-cyclopropyl-2-(2-fluorophenyl)-8-methyl-1,6-naphthyridin-7(8H)-one] | 20.1 µM | – | 1.63 µM
C=CC(=O)N1C[C@H](C)N(C2=NC(=O)C(C)(C3CCCC3)c3nc(-c4ccccc4F)c(Cl)cc32)C[C@H]1C (mixture of isomers) [Example 1-1, 5-((2S,5R)-4-Acryloyl-2,5-dimethylpiperazin-1-yl)-3-chloro-8-cyclopentyl-2-(2-fluorophenyl)-8-methyl-1,6-naphthyridin-7(8H)-one] | 2.68 µM | – | –
C=CC(=O)N1C[C@H](C)N(C2=NC(=O)C(C)(CC(C)C)c3nc(-c4ccccc4F)c(Cl)cc32)C[C@H]1C (single isomer, unassigned) [Example 1-8-1] | 53.8 µM | – | –
C=CC(=O)N1CCN(C2=NC(=O)C(C)(CC(C)C)c3nc(-c4ccccc4F)c(Cl)cc32)[C@@H](C)C1 (single isomer, unassigned) [Example 3-1-1] | 94.7 µM | – | –
C=CC(=O)N1C[C@H](C)N(C2=NC(=O)C3(Cc4ccccc4C3)c3nc(-c4ccccc4F)c(Cl)cc32)C[C@H]1C [Example 2-2, 5′-((2S,5R)-4-acryloyl-2,5-dimethylpiperazin-1-yl)-3′-chloro-2′-(2-fluorophenyl)-1,3-dihydro-7′H-spiro[indene-2,8′-[1,6]naphthyridin]-7′-one] | 3.37 µM | – | 1.77 µM
C=CC(=O)N1C[C@H](C)N(C2=NC(=O)C3(CCCCC3)c3nc(-c4ccccc4F)c(Cl)cc32)C[C@H]1C [Example 1-6, 5′-((2S,5R)-4-Acryloyl-2,5-dimethylpiperazin-1-yl)-3′-chloro-2′-(2-fluorophenyl)-7′H-spiro[cyclohexane-1,8′-[16,]naphthyridin]-7′-one] | 7.28 µM | – | 3.31 µM
C=CC(=O)N1C[C@H](C)N(C2=NC(=O)C(C)(CC)c3nc(-c4ccccc4F)c(Cl)cc32)C[C@H]1C (single isomer, unassigned) [Example 1-4-1] | 11.2 µM | – | 2.74 µM
C=CC(=O)N1C[C@H](C)N(C2=NC(=O)C(C)(c3ccccc3)c3nc(-c4ccccc4F)c(Cl)cc32)C[C@H]1C (single isomer, unassigned) [Example 1-5-2] | 14.9 µM | – | –
C=CC(=O)N1C[C@H](C)N(C2=NC(=O)C(C)(C3CCC3)c3nc(-c4ccccc4F)c(Cl)cc32)C[C@H]1C (single isomer, unassigned) [Example 1-3-1] | 201 µM | – | –
C=CC(=O)N1C[C@H](C)N(C2=NC(=O)C(C)(c3ccccc3)c3nc(-c4ccccc4F)c(Cl)cc32)C[C@H]1C (stereo partly drawn) [Example 1-5, 5-((2S,5R)-4-Acryloyl-2,5-dimethylpiperazin-1-yl)-3-chloro-2-(2-fluorophenyl)-8-methyl-8-phenyl-1,6-naphthyridin-7(8H)-one] | 25.9 µM | – | –
C=CC(=O)N1C[C@H](C)N(C2=NC(=O)C(C)(CC(C)C)c3nc(-c4ccccc4F)c(Cl)cc32)C[C@H]1C (single isomer, unassigned) [Example 1-8-2] | 4.95 µM | 1.62 µM | –
C=CC(=O)N1C[C@H](C)N(C2=NC(=O)C(C)(CC(C)C)c3nc(-c4ccccc4F)c(Cl)cc32)C[C@H]1C (stereo partly drawn) [Example 1-8, 5-((2S,5R)-4-Acryloyl-2,5-dimethylpiperazin-1-yl)-3-chloro-2-(2-fluorophenyl)-8-isobutyl-8-methyl-1,6-naphthyridin-7(8H)-one] | 5.78 µM | 3.69 µM | –
C=CC(=O)N1C[C@H](C)N(C2=NC(=O)C(C)(C3CC3)c3nc(-c4ccccc4F)c(Cl)cc32)C[C@H]1C (single isomer, unassigned) [Example 1-2-2] | >250 µM | – | –
C=CC(=O)N1CCN(C2=NC(=O)C(C)(CC(C)C)c3nc(-c4ccccc4F)c(Cl)cc32)[C@@H](C)C1 (single isomer, unassigned) [Example 3-1-2] | 13.3 µM | – | 1.77 µM
C=CC(=O)N1CCN(C2=NC(=O)C(C)(CC(C)C)c3nc(-c4ccccc4F)c(Cl)cc32)[C@@H](C)C1 (stereo partly drawn) [Example 3-1, 5-((S)-4-Acryloyl-2-methylpiperazin-1-yl)-3-chloro-2-(2-fluorophenyl)-8-isobutyl-8-methyl-1,6-naphthyridin-7(8H)-one] | 14.3 µM | – | –
C=CC(=O)N1C[C@H](C)N(C2=NC(=O)C(C)(c3ccccc3)c3nc(-c4ccccc4F)c(Cl)cc32)C[C@H]1C (single isomer, unassigned) [Example 1-5-1] | 186 µM | – | –
C=CC(=O)N1C[C@H](C)N(C2=NC(=O)C(C3CC3)(C3CC3)c3nc(-c4ccccc4F)c(Cl)cc32)C[C@H]1C [Example 2-1, 5-((2S,5R)-4-Acryloyl-2,5-dimethylpiperazin-1-yl)-3-chloro-8,8-dicyclopropyl-2-(2-fluorophenyl)-1,6-naphthyridin-7(8H)-one] | 18.6 µM | – | –
C=CC(=O)N1C[C@H](C)N(C2=NC(=O)C(C)(CC)c3nc(-c4ccccc4F)c(Cl)cc32)C[C@H]1C (single isomer, unassigned) [Example 1-4-2] | 139 µM | – | –
C=CC(=O)N1C[C@H](C)N(C2=NC(=O)C(C)(C3CCC3)c3nc(-c4ccccc4F)c(Cl)cc32)C[C@H]1C (stereo partly drawn) [Example 1-3, 5-((2S,5R)-4-Acryloyl-2,5-dimethylpiperazin-1-yl)-3-chloro-8-cyclobutyl-2-(2-fluorophenyl)-8-methyl-1,6-naphthyridin-7(8H)-one] | 1.69 µM | – | 0.95 µM
C=CC(=O)N1C[C@H](C)N(C2=NC(=O)C3(CCc4ccccc43)c3nc(-c4ccccc4F)c(Cl)cc32)C[C@H]1C (single isomer, unassigned) [Example 1-7-2] | 7.74 µM | 3.26 µM | –
C=CC(=O)N1C[C@H](C)N(C2=NC(=O)C(C)(C3CCCC3)c3nc(-c4ccccc4F)c(Cl)cc32)C[C@H]1C (single isomer, unassigned) [Example 1-1-1] | 250 µM | – | –
C=CC(=O)N1C[C@H](C)N(C2=NC(=O)C(C)(C3CC3)c3nc(-c4ccccc4F)c(Cl)cc32)C[C@H]1C (single isomer, unassigned) [Example 1-2-1] | 5.15 µM | 1.45 µM | –
C=CC(=O)N1C[C@H](C)N(C2=NC(=O)C(C)(C3CCC3)c3nc(-c4ccccc4F)c(Cl)cc32)C[C@H]1C (single isomer, unassigned) [Example 1-3-2] | 0.55 µM | – | 0.35 µM
C=CC(=O)N1C[C@H](C)N(C2=NC(=O)C3(CCc4ccccc43)c3nc(-c4ccccc4F)c(Cl)cc32)C[C@H]1C (stereo partly drawn) [Example 1-7, 5′-((2S,5R)-4-Acryloyl-2,5-dimethylpiperazin-1-yl)-3′-chloro-2′-(2-fluorophenyl)-2,3-dihdyro-7′H-spiro[indene-1,8′-[1,6]naphthyridin]-7′-one] | 8.04 µM | – | 1.76 µM
